{
  "source": "ChEMBL document CHEMBL1158820",
  "about": "“Avrainvilloside, a 6-deoxy-6-aminoglucoglycerolipid from the green alga Avrainvillea nigricans” (J Nat Prod, 2005)",
  "tested_on": "WEHI-164",
  "assay": "Cytotoxicity against mouse WEHI164 cells",
  "type": "functional, cell-based",
  "data": [
    {"smiles": "CCCCCCCCCCCCCCCCCC(=O)OC[C@H](CO[C@H]1O[C@H](CN)[C@@H](O)[C@H](O)[C@H]1O)OC(=O)CCCCCCCCCCCCCCCCC", "note": "[AVRAINVILLOSIDE]", "values": [
      {"measurement": "IC50", "result": "> 10", "unit": "µg/mL"}
    ]}
  ]
}
